Experimental data as given in patent US10940188B2, “Compounds and methods for treatment and prevention of Flavivirus infection” (priority 2016, dated 2021).
Read-outs that look alike come from different tables or passages of the source.

Tested on: ZIKV (FSS13025, PRVABC59, MR766) in SNB-19 cells
Assay: Anti-ZIKV activity in SNB-19 cells (NS1 Western blot, NS1 ELISA, immunofluorescence)
Format: cell-based, Zika virus
Conditions: for time-of-addition effect on ZIKV infection / IC50: SNB-19 cells; for time-of-addition effect on ZIKV infection: PRVABC59, added 1 hour before or 4 hours after inoculation; for anti-ZIKV activity in SNB-19 cells: compound added 1 hour prior to infection; for IC50: all three strains of ZIKV, read-out: IC50 of inhibition of ZIKV (NS1 read-out)
Experimental: FIGS. 2A-1, 2A-2, 2B-1, 2B-2, 2C-1, 2C-2, 2D-1, 2D-2, 2D-3, 2E-1, 2E-2, and 2F. […] Screening of select compounds for antiviral activity against ZIKV infection was carried out. Glioblastoma SNB-19 cells were treated with indicated compound at 10×AC50 (determined in the primary caspase screen) for 1 hour prior to inoculation with FSS-13025 (at MOI=1). Cells were harvested 24 hours post infection and analyzed by Western blot for ZIKV-NS1 or GAPDH (FIGS. 2A-1 and 2A-2). […] Three strains of virus (FSS-13025, PRVABC59, and MR766; MOI=1) were tested. Shown are sample western blot images (FIG. 2B-1) and ImageJ quantification (FIG. 2B-2). Values represent mean±s.d. (n=3; ***P<0.001; One-way ANOVA). Titration of Emricasan on SNB-19 cells for anti-ZIKV activity was conducted similarly (FIGS. 2C-1 and 2C-2). Values represent mean±s.d. […] Sample western blot (FIG. 2D-2) and ImageJ quantification (FIG. 2D-3) are shown for infection with the PRVABC59 strain (MOI=1). Results for additional strains are shown in FIGS. 6A-F. Values represent mean±s.d. (n=2; **P<0.01; ***P<0.001; One-way ANOVA). […] The concentration of NS1 in the medium of infected SNB-19 cells collected 24 hours post-infection was quantified by a ZIKV-NS1 ELISA kit (FIGS. 2E-1 and 2E-2). Values represent mean±s.d. (n=3; ***P<0.001; One-way ANOVA). […] SNB-19 cells were treated with each indicated compound at increasing concentrations for 1 hour before infection with PRVABC59 at a MOI=0.5 (n=3 cultures). Cell culture supernatant was collected 24 hours after infection, and infectious virions were quantified for focus-forming units (FFU) using Vero cells. Data represent mean±s.d.
FIGS. 3A, 3B, 3C-1, 3C-2, 3C-3, 3C-4, 3C-5, 3D-1, 3D-2, and 3E. […] SNB-19 cells were treated with the indicated compound at 92 μM for one hour prior to infection with FSS13025 or PRVABC59 (MOI=1). Cells were harvested 24 hours post infection and analyzed by western blot for ZIKV-NS1 or GAPDH. Shown are sample images and quantification (FIGS. 3D-1 and 3D-2). Values represent mean±s.d. (n=2; ***P<0.01; One-way ANOVA). Data were normalized to those obtained for DMSO-treated cells. Values represent mean±s.d. *P<0.05; **P<0.01; ***P<0.001; by one-way ANOVA, as compared to DMSO-treated cells.
FIGS. 18A, 18B, 18C-1, 18C-2, 18D, 18E, 18F, 18G-1, and 18G-2. […] 24 hours post infection, supernatants from SNB-19 cells were titrated onto naïve vero cells plated in a monolayer in 96-well plates for infectious focus-forming unit assay as previously described and focus forming units quantified. […] Immunofluorescence (IF) staining (FIG. 18C-1) and quantification (FIG. 18C-2) of ZIKV positive SNB-19 cells following infection with one of three ZIKV strains and treatment with emetine at 0.01, 0.1, or 1 μM. […] Drug was added at 1 μM either 1-hour prior to infection with PRVABC59-ZIKV, or 4-hours post infection with PRVABC59-ZIKV. […] Drug was added at 1 μM either 1-hour prior to infection with PRVABC59-ZIKV, or 4-hours post infection with PRVABC59-ZIKV.
Cells were harvested by trypsinization, pelleting, and subsequent lysis in 1× Laemlli buffer and boiled, or directly lysed in 1× Laemlli buffer and boiled. Antibodies used were anti-ZIKV NS1 (1:2000; BF-1225-36, BioFront Technologies, Tallahassee, Fla.) or GAPDH (Santa Cruz Biotechnology, Texas).

Row | Structure (SMILES) | time-of-addition effect on ZIKV infection | anti-ZIKV activity in SNB-19 cells | IC50 (Zika virus) [µM] | IC50 [µM]
1 | CC[C@H]1CN2CCc3cc(OC)c(OC)cc3[C@@H]2C[C@@H]1C[C@H]1NCCc2cc(OC)c(OC)cc21 [Emetine] | effective against ZIKV infection when added both before or after infection | reduces ZIKV infection in a dosage dependent manner |  | 
2 | C[C@H](NC(=O)C(=O)Nc1ccccc1C(C)(C)C)C(=O)N[C@@H](CC(=O)O)C(=O)COc1c(F)c(F)cc(F)c1F [Emricasan] |  | no significant differences were found |  | 
3 | O=C(Nc1ccc([N+](=O)[O-])cc1Cl)c1cc(Cl)ccc1O [Niclosamide] | effectively inhibited ZIKV infection when added either 1 hour before or 4 hours after virus inoculation | significantly inhibited ZIKV infection in SNB-19 cells | 0.5 to 2 | 
4 | CC(=O)Nc1ccc([C@H](C)C(=O)Nc2ncc(C(C)C)s2)cc1 [PHA-690509] | effectively inhibited ZIKV infection when added either 1 hour before or 4 hours after virus inoculation | significantly inhibited ZIKV infection in SNB-19 cells |  | 12 to 36
